Assay results: patent publication US20100099561A1, “HETEROBICYCLIC ALKYLTHIO-BRIDGED ISOXAZOLINES” (E.I. DU PONT DE NEMOURS AND COMPANY, priority 2008, published 2010)

Tests used:
Assay type in all cases: in vivo
[1] = test system: barnyardgrass (Echinochloa crus-galli); assay: Test A postemergence, barnyardgrass; settings: 0 to 100 scale (0 no effect, 100 complete control)
Procedure, shortened: (§1)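 Seeds planted in loam–sand blend; compounds in non-phytotoxic solvent with surfactant applied as directed preemergence soil spray, or postemergence to plants 2–10 cm tall at one- to two-leaf stage. After ~10 days in greenhouse, injury rated visually versus untreated controls on 0–100 scale (100 = complete control).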

[2] = test system: bermudagrass (Cynodon dactylon); assay: Test B preemergence, bermudagrass; settings: scale 0 to 100
Procedure, shortened: (§2)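 Seeds sown in loam–sand blend and treated preemergence with compounds in a non-phytotoxic solvent mixture containing surfactant. Plants kept in greenhouse 13–15 days, then visually rated against controls on a 0 (no effect) to 100 (complete control) scale.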

[3] = test system: morningglory (Ipomoea coccinea); assay: Test B preemergence, morningglory; settings: scale 0 to 100
Procedure, shortened: as §2

soybean (Glycine max) = assay: Test B preemergence, soybean; settings: Preemergence, scale 0 to 100
Procedure, shortened: as §2

[4] = test system: woolly cupgrass (Eriochloa villosa); assay: Test B preemergence, woolly cupgrass; settings: scale 0 to 100
Procedure, shortened: as §2

[5] = test system: green foxtail (Setaria viridis); assay: Test B preemergence, green foxtail; settings: scale 0 to 100
Procedure, shortened: as §2

[6] = test system: Surinam grass (Brachiaria decumbens); assay: Test B preemergence, Surinam grass; settings: Preemergence, scale 0 to 100
Procedure, shortened: as §2

[7] = test system: large crabgrass (Digitaria sanguinalis); assay: Test B preemergence, large crabgrass; settings: scale 0 to 100
Procedure, shortened: as §2

[8] = test system: morningglory (Ipomoea spp.); assay: Test A preemergence, morningglory; settings: 0 to 100 scale (0 no effect, 100 complete control)
Procedure, shortened: as §1

[9] = test system: ducksalad (Heteranthera limosa); assay: Test B flooded paddy test, ducksalad; settings: Flood, scale 0 to 100
Procedure, shortened: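 2-leaf plants; pots flooded 3 cm above soil; compound added to paddy water; depth maintained. Greenhouse 13–15 d. Visual rating vs controls, 0 (no effect) to 100 (complete control); dash = no result.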

[10] = test system: johnsongrass (Sorghum halepense); assay: Test B preemergence, johnsongrass; settings: scale 0 to 100
Procedure, shortened: as §2

[11] = test system: giant foxtail (Setaria faberi); assay: Test A preemergence, giant foxtail; settings: 0 to 100 scale (0 no effect, 100 complete control)
Procedure, shortened: as §1

[12] = test system: downy bromegrass (Bromus tectorum); assay: Test B preemergence, downy bromegrass; settings: scale 0 to 100
Procedure, shortened: as §2

[13] = test system: ragweed (common ragweed, Ambrosia elatior); assay: Test B preemergence, ragweed; settings: scale 0 to 100
Procedure, shortened: as §2

[14] = test system: pigweed (Amaranthus retroflexus); assay: Test A postemergence, pigweed; settings: 0 to 100 scale (0 no effect, 100 complete control)
Procedure, shortened: as §1

[15] = test system: velvetleaf (Abutilon theophrasti); assay: Test A postemergence, velvetleaf; settings: 0 to 100 scale (0 no effect, 100 complete control)
Procedure, shortened: as §1

[16] = test system: large crabgrass (Digitaria sanguinalis); assay: Test A preemergence, large crabgrass; settings: 0 to 100 scale (0 no effect, 100 complete control)
Procedure, shortened: as §1

[17] = test system: barnyardgrass (Echinochloa crus-galli); assay: Test A preemergence, barnyardgrass; settings: 0 to 100 scale (0 no effect, 100 complete control)
Procedure, shortened: as §1

wild oat (Avena fatua) = assay: Test B preemergence, wild oat; settings: scale 0 to 100
Procedure, shortened: as §2

`CC1(C)CC(S(=O)(=O)Cc2c(C(F)(F)C(F)(F)F)nc3n(c2=O)CCC3)=NO1` [Compound 22] was tested, and the “Plant response rating, Barnyardgrass” value ([1]; 125 g ai/ha) was 70, the “Plant response rating, Barnyardgrass” value ([1]; 500 g ai/ha) was 80 and the “Plant response rating, Bermudagrass” value ([2]; 16 g ai/ha) was 98. The “Plant response rating, Bermudagrass” value ([2]; 31 g ai/ha) was 100, the “Plant response rating, Bermudagrass” value ([2]; 62 g ai/ha) was 100 and the “Plant response rating, Bermudagrass” value ([2]; 125 g ai/ha) was 100. For the same molecule, the “Plant response rating, Morningglory” value ([3]; 16 g ai/ha) was 0, the “Plant response rating, Morningglory” value ([3]; 31 g ai/ha) was 0 and the “Plant response rating, Morningglory” value ([3]; 62 g ai/ha) was 70. For the same molecule, the “Plant response rating, Morningglory” value ([3]; 125 g ai/ha) was 100, the “Plant response rating, Soybean” value (soybean (Glycine max); 16 g ai/ha) was 0 and the “Plant response rating, Soybean” value (soybean (Glycine max); 31 g ai/ha) was 0. For the same molecule, the “Plant response rating, Soybean” value (soybean (Glycine max); 62 g ai/ha) was 0, the “Plant response rating, Soybean” value (soybean (Glycine max); 125 g ai/ha) was 0 and the “Plant response rating, Cupgrass, Woolly” value ([4]; 16 g ai/ha) was 100. For the same molecule, the “Plant response rating, Cupgrass, Woolly” value ([4]; 31 g ai/ha) was 100, the “Plant response rating, Cupgrass, Woolly” value ([4]; 62 g ai/ha) was 100 and the “Plant response rating, Cupgrass, Woolly” value ([4]; 125 g ai/ha) was 100. The “Plant response rating, Foxtail, Green” value ([5]; 16 g ai/ha) was 50, the “Plant response rating, Foxtail, Green” value ([5]; 31 g ai/ha) was 70 and the “Plant response rating, Foxtail, Green” value ([5]; 62 g ai/ha) was 100. The “Plant response rating, Foxtail, Green” value ([5]; 125 g ai/ha) was 100, the “Plant response rating, Surinam Grass” value ([6]; 16 g ai/ha) was 0 and the “Plant response rating, Surinam Grass” value ([6]; 31 g ai/ha) was 0. For the same molecule, the “Plant response rating, Surinam Grass” value ([6]; 62 g ai/ha) was 90, the “Plant response rating, Surinam Grass” value ([6]; 125 g ai/ha) was 95 and the “Plant response rating, Crabgrass, Large” value ([7]; 16 g ai/ha) was 85. The “Plant response rating, Crabgrass, Large” value ([7]; 31 g ai/ha) was 90, the “Plant response rating, Crabgrass, Large” value ([7]; 62 g ai/ha) was 98 and the “Plant response rating, Crabgrass, Large” value ([7]; 125 g ai/ha) was 100. The “Plant response rating, Morningglory” value ([8]; 125 g ai/ha) was 50, the “Plant response rating, Morningglory” value ([8]; 500 g ai/ha) was 80 and the “Plant response rating, Ducksalad” value ([9]; 62 g ai/ha) was 0. The “Plant response rating, Ducksalad” value ([9]; 250 g ai/ha) was 0, the “Plant response rating, Johnsongrass” value ([10]; 16 g ai/ha) was 0 and the “Plant response rating, Johnsongrass” value ([10]; 31 g ai/ha) was 10. For the same molecule, the “Plant response rating, Johnsongrass” value ([10]; 62 g ai/ha) was 65, the “Plant response rating, Johnsongrass” value ([10]; 125 g ai/ha) was 98 and the “Plant response rating, Foxtail, Giant” value ([11]; 125 g ai/ha) was 90. The “Plant response rating, Foxtail, Giant” value ([11]; 500 g ai/ha) was 100, the “Plant response rating, Bromegrass, Downy” value ([12]; 16 g ai/ha) was 0 and the “Plant response rating, Bromegrass, Downy” value ([12]; 31 g ai/ha) was 0. The “Plant response rating, Bromegrass, Downy” value ([12]; 62 g ai/ha) was 0, the “Plant response rating, Bromegrass, Downy” value ([12]; 125 g ai/ha) was 60 and the “Plant response rating, Ragweed” value ([13]; 16 g ai/ha) was 0. The “Plant response rating, Ragweed” value ([13]; 31 g ai/ha) was 0, the “Plant response rating, Ragweed” value ([13]; 62 g ai/ha) was 30 and the “Plant response rating, Ragweed” value ([13]; 125 g ai/ha) was 50. For the same molecule, the “Plant response rating, Pigweed” value ([14]; 125 g ai/ha) was 0, the “Plant response rating, Pigweed” value ([14]; 500 g ai/ha) was 40 and the “Plant response rating, Velvetleaf” value ([15]; 125 g ai/ha) was 20. For the same molecule, the “Plant response rating, Velvetleaf” value ([15]; 500 g ai/ha) was 60, the “Plant response rating, Crabgrass, Large” value ([16]; 125 g ai/ha) was 90 and the “Plant response rating, Crabgrass, Large” value ([16]; 500 g ai/ha) was 100. For the same molecule, the “Plant response rating, Barnyardgrass” value ([17]; 125 g ai/ha) was 80, the “Plant response rating, Barnyardgrass” value ([17]; 500 g ai/ha) was 90 and the “Plant response rating, Oat, Wild” value (wild oat (Avena fatua); 16 g ai/ha) was 0. For the same molecule, the “Plant response rating, Oat, Wild” value (wild oat (Avena fatua); 31 g ai/ha) was 0, the “Plant response rating, Oat, Wild” value (wild oat (Avena fatua); 62 g ai/ha) was 30 and the “Plant response rating, Oat, Wild” value (wild oat (Avena fatua); 125 g ai/ha) was 40.
